# Results taken from patent US20220170028A1, “NOVEL INTERLEUKIN-2 VARIANTS AND BIFUNCTIONAL FUSION MOLECULES THEREOF” (Cugene Inc, priority 2019, published 2022).
# Entries after “also recorded” stand apart in the source; their conditions may differ.
# How the values were obtained:
# CD8+ T cells [1] = assay: Ki67 expression on CD8+ T cells, human PBMC, flow cytometry; assay type: cell-based
# Excerpt: (§1) Exemplary IL-2 variant Fc fusion protein P-0573 was further characterized for induction of Ki-67 expression by flow cytometry.
# NK cells [2] = assay: Ki67 expression on NK cells, human PBMC, flow cytometry; assay type: cell-based
# Excerpt: as §1
# [3] = test system: CD4+ Treg vs CD4+ Tconv cells; assay: STAT5 phosphorylation, selectivity / activity profile Treg versus CD4+ Tconv cells, human PBMC; assay type: cell-based
# Summary of the method: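 Fresh human PBMC from a healthy donor, serum-starved 1 h at 4 °C, then exposed to serial dilutions of IL-2 variants for 30 min at 37 °C. After fixation/permeabilization, cells stained for CD4, CD25, FOXP3 and pSTAT5 and analysed by flow cytometry. Treg (CD4+/Foxp3+/CD25high) and Tconv (CD4+/Foxp3−/CD25low) gated; read-out is percent pSTAT5-positive cells.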
# [4] = test system: CD4+/Foxp3+/CD25+ Treg, CD4+/Foxp3-/CD25+ Teff and CD4+/Foxp3-/CD25- naive T cells; assay: STAT5 phosphorylation in three CD4+ T cell subsets (Treg, CD4 effector, CD4 naive), human PBMC; assay type: cell-based
# Excerpt: In addition to being assessed for their ability to differentially stimulate Stat5 phosphorylation in CD4 positive Treg (CD4+/Foxp3+/CD25^high) versus Tconv (CD4+/Foxp3−/CD25^low) cells, two variants, P-0511 and P-0512, were further assayed for their ability to stimulate other effector T and NK cells, including CD4 positive Teff (CD4+/Foxp3-/CD25+), CD8 cytotoxic T effector and NK cells in comparison to wild-type IL-2 (P-0250) and three IL-2 benchmark molecules containing V91K, N88R, N88D respectively.
# After human PBMC Cells were treated with serial dilutions of test compounds, fixed and permeabilized, washed, and stained with a mixture of anti-CD25-PE, anti-FOXP3-APC, anti-pSTAT5-FITC, and anti-CD4-PerCP-Cy5.5 antibodies, the flow cytometry analysis was gated into CD4+/Foxp3+/CD25+, CD4+/Foxp3−/CD25+, CD4+/Foxp3−/CD25− groups for the Treg, CD4 effector, and CD4 naive T cell subsets, respectively. Data are expressed as a percent of pStat5 positive cells in gated population and illustrated in FIG. 9.
# CD8+ T cells [5] = assay: CD8+ T cell proliferation, CFSE dilution, human PBMC; assay type: cell-based; conditions: 5 or 7 days incubation
# Experimental: (§2) Further, P-0511 and P-0512 were tested for their ability to stimulate NK and CD8+ T cells proliferation in comparison with the wild type and benchmark molecules. Intracellular fluorescent label carboxyfluorescein diacetate succinimidyl ester (CFSE) method was utilized. Briefly, human PBMC (1×10^5 cells/well) were labeled with CFSE, plated onto 96-well plates, and incubated with increasing concentrations of different IL-2 compounds. Cells were then harvested after 5 or 7 days of incubation and stained with either anti-CD56-APC antibody for NK cells or anti-CD8-APC antibody for CD8+ T cells; and analyzed by flow cytometry. Data are expressed as a percent of divided cells and illustrated in FIG. 10A for CD8+ T cell proliferation and FIG. 10B for NK cell proliferation.
# NK cells [6] = assay: NK cell proliferation, CFSE dilution, human PBMC; assay type: cell-based; conditions: 5 or 7 days incubation
# Experimental: as §2
# Treg cells [7] = assay: Treg proliferation and expansion in mice after a single subcutaneous injection (Example 9); assay type: in vivo, mouse; conditions: 0.3 mg/kg single s.c., C57/BL6 mice
# Experimental: (§3) IL-2 variant Fc fusion proteins were administered to mice and their ability to preferentially proliferate and expand regulatory T cells (CD4+CD25+FoxP3+ T cells) over effector T cells and NK cells were determined in vivo.
# (§4) Female C57/BL6 mice (7-week old) were received from Charles River Laboratory and acclimated in house for at least 7 days before the study. Vehicle (PBS), 0.3 mg/kg of each test compounds, or IL-2 benchmark compounds were subcutaneously administered to mice on day 0. Peripheral blood samples were collected into heparin-treated tubes on days 3, 5 and 7 post-treatment. Each group contained 6 mice and baseline blood was collected 2 days prior to the treatment (day −2). After red blood cell lysis, total viable mononuclear blood cells were counted by trypan blue dead cell exclusion method and proceeded to intracellular staining for immune cell phenotype and Ki67 proliferation markers using flow cytometric analysis. Cells were stained separately with two panels of antibodies as listed: 1) anti-mouse Foxp3-FITC, Ki67-PE, anti-mouse CD25-APC and anti-mouse CD4-Percpcy5.5 (1:50 dilution) for CD4+T-regulatory cells (Treg); 2) anti-mouse CD3-FITC, Ki67-PE, anti-mouse CD335-APC and anti-mouse CD8-Percpcy5.5 (1:50 dilution) for CD8+T and NK cells.
# [8] = test system: CD4+ Tconv cells, CD8 T cells and NK cells; assay: Effector T cell and NK cell proliferation and expansion in mice after a single subcutaneous injection (Example 9); assay type: in vivo, mouse; conditions: 0.3 mg/kg single s.c., C57/BL6 mice
# Experimental: as §3, §4
# Treg cells [9] = assay: Treg pharmacodynamics in mice after repeated administration Q3D (Example 11); assay type: in vivo, mouse; conditions: 0.3 mg/kg s.c.
# Experimental: Female Balb/C mice (7-week old) were acclimated in house for 5-7 days before the study. Vehicle (PBS), 0.3 mg/kg of P-0511, P-0512, P-0531, or Benchmark-1 compound were subcutaneously administered to mice (n=5/group) on days 0, 3, and 6. On days 3 and 9, three days after the first injection and multiple (3) injections, respectively, peripheral blood was collected. Based on earlier in vivo experiments, Treg cell activation, proliferation, and expansion were expected to peak on day 3, and thus three days post injection was selected for data collection and analysis. Changes in blood lymphocyte activation, proliferation, and expansion were measured by flow cytometry. P-0531 is the S125I equivalent of the wild type IL-2 fusion protein. The Benchmark-1 contains V91K mutation.
# Treg cells [10] = assay: Treg proliferation and expansion in mice after a single s.c. injection of bifunctional constructs (Example 17); assay type: in vivo, mouse; conditions: 15 nmol/kg single s.c.; for potency in inducing Treg cell proliferation and expansion in vivo (in words): C57/BL6 mice
# Experimental: as §3, with “IL-2 variant tocilizumab bifunctional proteins P-0536, P-0546, P-0559, and P-0560 along with IL-2” for “IL-2”, “protein P-0511” for “proteins”, “mice,” for “mice”
# (§5) Female C57/BL6 mice (7-week old) were received from Charles River Laboratory and acclimated in house for at least 7 days before the study. Vehicle (PBS) and 15 nmol/kg each test compounds were subcutaneously administered to mice on day 0. Peripheral blood samples were collected into heparin-treated tubes on days 2, 4 and 8 post-treatment. Each group contained 5 mice and baseline blood was collected 3 days prior to the treatment (day −3).
# [11] = test system: CD4+ Tconv, activated CD4+ T, CD8+ T and NK cells; assay: Effector T cell and NK cell proliferation and expansion in mice, bifunctional constructs (Example 17); assay type: in vivo, mouse; conditions: 15 nmol/kg single s.c.
# Experimental: as §3, with “IL-2 variant tocilizumab bifunctional proteins P-0536, P-0546, P-0559, and P-0560 along with IL-2” for “IL-2”, “protein P-0511” for “proteins”, “mice,” for “mice”
# as §5
# CD4+ T cells = assay: Ki67 expression on CD4+ T cells, human PBMC, flow cytometry; assay type: cell-based
# Excerpt: as §1
Substance,induction of Ki67 expression in CD8+ T cells (CD8+ T cells [1]),induction of Ki67 expression in NK cells (NK cells [2]),"Treg/Tconv ratio (Ki67 stimulation, cell counts) (Treg cells [10])",expression of CD25 and Foxp3 on Treg cells (Treg cells [10]),potency in inducing Treg cell proliferation and expansion in vivo (in words) (Treg cells [10]),change of the activated CD4+ T cells [11],further results
"Benchmark-4: benchmark Fc-IL-2 fusion with IL-2Rα-disrupting triple mutations F42A/Y45A/L72G, SEQ ID NO: 250 [reference compound]",equally effective,equally effective,–,–,–,–,–
"P-0512: IL-2 L19H/S125I/Q126K Fc fusion, SEQ ID NO: 214",–,–,–,–,–,–,"Treg Selectivity ([3]; Isoleucine-125 constructs): Yes; pSTAT5 activity profile in Treg, Teff and naive CD4 T cell subsets (in words) [4]: comparable activity profile to Benchmark-1; potency in stimulating CD8+ T cell proliferation (in words) (CD8+ T cells [5]): comparable activity profile to Benchmark-1; potency in stimulating NK cell proliferation (in words) (NK cells [6]): comparable activity profile to Benchmark-1; Treg/Tconv ratio (Ki67 stimulation and cell counts) (Treg cells [7]; all measured time points): most beneficial Treg/Tconv ratio; stimulation of Treg cell proliferation and expansion in vivo (in words) (Treg cells [7]; days 3, 5, 7): stronger in vivo efficacy; Ki67 stimulation on CD8 T cells and NK cells in vivo (in words) [8]: mild Ki67 stimulation; expansion of CD4+ Tconv cells, CD8 T cells or NK cells in vivo [8]: No significant expansion; % Treg over total CD4 T cells or over total lymphocytes (Treg cells [9]; after three consecutive Q3D treatments): sustained at significantly high levels; Treg cell counts, fold changes relative to PBS and Treg/Tconv ratio (Treg cells [9]; repeated dosing Q3D): superior capabilities to sustain Treg pool and maintain Treg selectivity"
"P-0546: Tocilizumab IL-2 L19H/S125I/Q126E monovalent fusion, SEQ ID NOs 253 + 254 + 256",–,–,most beneficial Treg/Tconv ratio,highest expression of CD25,highest potency,slight increase,–
"P-0560: Tocilizumab IL-2 D20Q/S125I monovalent fusion, SEQ ID NOs 253 + 254 + 266",–,–,most beneficial Treg/Tconv ratio,highest expression of CD25,highest potency,slight increase,activity profile / selectivity window Treg over CD4+ Tconv (in words) [3]: selective activation of Treg cells over CD4+ Tconv cells
"P-0573: IL-2 R38A/P65G/S125I Fc fusion, SEQ ID NO: 247",equally effective,equally effective,–,–,–,–,induction of Ki67 expression in CD4+ T cells (CD4+ T cells): substantially reduced potency; also recorded: higher potency than Benchmark-4
